Source: ChEMBL document CHEMBL4028829, “New derivatives of ursolic acid through the biotransformation by Bacillus megaterium CGMCC 1.1741 as inhibitors on nitric oxide production” (Bioorg Med Chem Lett, 2017)

Assays:
[1] = test system: RAW264.7; experiment: Inhibition of LPS-induced NO production in mouse RAW264.7 cells preincubated for 1 hr followed by LPS stimulation measured after 24 hrs by Griess assay; format: functional, cell-based
[2] = test system: RAW264.7; experiment: Pro-inflammatory activity in mouse RAW264.7 cells assessed as LPS-induced NO production at 0.625 to 60 uM preincubated for 1 hr followed by LPS stimulation measured after 24 hrs by Griess assay; format: ADME, cell-based; conditions: raw264.7, 24 h
[3] = Mus musculus, RAW264.7, read-out: IC50

Row | SMILES | IC50 [1, 3] [µM] | IC50 ([1]; raw264.7) | Activity [2]
1 | C[C@H]1[C@H](C)CC[C@]2(C(=O)O)CC[C@]3(C)C(=C[C@@H](O)[C@@H]4[C@@]5(C)[C@H](O)C[C@H](O)C(C)(C)[C@@H]5CC[C@]43C)[C@H]12 | 40.1 |  | 
2 | C[C@H]1[C@H](C)CC[C@]2(C(=O)O)CC[C@]3(C)C(=C[C@@H](O)[C@@H]4[C@@]5(C)[C@H](O)CC(=O)C(C)(C)[C@@H]5CC[C@]43C)[C@H]12 | 1.24 |  | 
3 | C[C@H]1[C@H](C)CC[C@]2(C(=O)O[C@@H]3O[C@H](CO)[C@@H](O)[C@H](O)[C@H]3O)CC[C@]3(C)C(=C[C@@H](O)[C@@H]4[C@@]5(C)[C@H](O)CC(=O)C(C)(C)[C@@H]5CC[C@]43C)[C@H]12 | > 60 |  | 
4 | C[C@H]1[C@H](C)CC[C@@]23CC[C@]4(C)[C@@](C=C[C@@H]5[C@@]6(C)[C@H](O)CC(=O)C(C)(C)[C@@H]6CC[C@]54C)(OC2=O)[C@H]13 | 1.71 |  | 
5 | O=c1c(O)c(-c2ccc(O)c(O)c2)oc2cc(O)cc(O)c12 [QUERCETIN] | 4.41 |  | 
6 | C[C@H]1[C@H](C)CC[C@]2(C(=O)O)CC[C@]3(C)C(=CC[C@@H]4[C@@]5(C)CC[C@H](O)C(C)(C)[C@@H]5CC[C@]43C)[C@H]12 [URSOLIC ACID] |  | Not Active | Toxic
7 | C[C@H]1[C@H](C)CC[C@]2(C(=O)O)CC[C@]3(C)C(=CC[C@@H]4[C@@]5(C)CCC(=O)C(C)(C)[C@@H]5CC[C@]43C)[C@H]12 [URSONIC ACID] | 4.94 |  | 
